Data: patent US11607458B2 (Georgia State University Research Foundation, Inc, priority 2017, dated 2023)

How the values were obtained:
[1] = Determination of the lactonization rate constants (k1) by HPLC; assay type: physicochemical; details: for Lactonization rate constant k1: r.t., PBS (15% DMSO)
Experimental: General procedure for the determination of the lactonization rate constants. To a 9 mL PBS in a 20-mL vial was added a solution of the respective tetrazine prodrug (500 μL, 500 μM). Then 1 mL of the respective alkyne (50 mM in DMSO) was added to afford a final concentration of 5 mM in PBS (15% DMSO). The reaction was stirred at r.t. Every 30 min about 500 μL the reaction mixture was taken out and 20 μL of them was injected into the HPLC by an autosampler; the rest of them was poured back to the reaction mixture. The reaction rate constant, k1, was determined by fitting the area in HPLC chromatogram of the intermediate versus time using eq. 3: Y=A exp(−k1t) eq. 3 where Y is the intermediate areas, and t is the time.

[2] = Release of the parent drug (Dox / dansyl amine) from prodrugs treated with alkynes, monitored by HPLC; assay type: physicochemical; details: r.t, PBS 10% DMSO
Experimental: (§1) Standard curve of Dox concentration measurement. To four HPLC vials containing 0.9 mL PBS (size: 1.5 mL) were added 25, 15, 20, 10 μL Dox stock solution (1 mM) respectively. Then defined amounts DMSO (975, 985, 980, and 990 μL) were added to each vial to afford final concentration of four vials were 25, 15, 20, 10 μM in PBS (10% DMSO), respectively. The samples were analyzed with HPLC method A. Dox retention time: 4.0 min.
as §1, with “for DA” for “of Dox”, “B. DA” for “A. Dox”, “5.8” for “4.0”
General procedures HPLC studies of reaction kinetics. To three 20-ml vials with 9 mL PBS were added a solution of tetrazine prodrug (500 μL, 500 μM). 350 μL, 300 μL and 250 μL DMSO were added to vial respectively, and then 150 μL, 200 μL and 250 μL of the alkyne solution (50 mM in DMSO) were added to the vials to afford final concentrations of alkyne 0.75 mM, 1 mM and 1.25 mM in PBS (10% DMSO, 25 μM prodrug) respectively. The reaction was stirred at r.t or 37° C. respectively. Every 30 min about 500 μL reaction mixtures were taken out and 20 μL of them were injected into the HPLC by the autosampler; the rest of them were poured back to the reaction mixture. (Note: In the cases of prodrugs 1d or 1b reacting with alkyne 2d at 37° C., the final concentrations of 2d in the kinetic studies were 250 μM, 300 μM and 350 μM).
Results. The results from the reaction kinetics studies of the tetrazine-cyclooctyne system are summarized below in Table 4. Prodrugs 1d or 1b (25 μM) were treated with alkynes 2d, 2c ,2a, or 2b at different concentrations at room temperature (r.t.) or 37° C., respectively. The prodrug consumption and release of the parent drug were monitored by HPLC (Table 4).

[3] = alkyne 2c, no intermediates observed by HPLC

C#CCOc1ccc(-c2nnc(C(=O)NC3CC(OC4CC(O)(C(=O)CO)Cc5c(O)c6c(c(O)c54)C(=O)c4c(OC)cccc4C6=O)OC(C)C3O)nn2)cc1 (stereo not drawn) [1b]
Lactonization rate constant k1 ([1]; alkyne 2a 5 mM, Exp 2): 0.206 h⁻¹
Lactonization rate constant k1 ([1]; alkyne 2a 5 mM, Expt 1): 0.185 h⁻¹
Lactonization rate constant k1 ([1]; alkyne 2a 5 mM, Expt. 3): 0.229 h⁻¹
k1 at r.t (lactonization) ([1]; alkyne 2a, n = 3): 0.21 ± 0.04 h⁻¹
Lactonization rate constant k1 ([1]; alkyne 2b 5 mM, Exp 2): 0.179 h⁻¹
Lactonization rate constant k1 ([1]; alkyne 2b 5 mM, Expt 1): 0.223 h⁻¹
Lactonization rate constant k1 ([1]; alkyne 2b 5 mM, Expt. 3): 0.196 h⁻¹
k1 at r.t (lactonization) ([1]; alkyne 2b, n = 3): 0.20 ± 0.04 h⁻¹
k1 at r.t (lactonization) [1, 3]: too fast to detect
Time of the Dox peak (in brackets in the Dox Peak % cell) ([2]; alkyne 2a): 19 h
Time of the Dox peak (in brackets in the Dox Peak % cell) ([2]; alkyne 2b): 18 h
Time of the Dox peak (in brackets in the Dox Peak % cell) ([2]; alkyne 2c): 21 h
Time of the Dox peak (in brackets in the Dox Peak % cell) ([2]; alkyne 2d): 48 h

COc1cccc2c1C(=O)c1c(O)c3c(c(O)c1C2=O)CC(O)(C(=O)CO)CC3OC1CC(NC(=O)c2nnc(-c3ccc(OCc4cn(CCCCCCCCC[P+](c5ccccc5)(c5ccccc5)c5ccccc5)nn4)cc3)nn2)C(O)C(C)O1 (stereo not drawn) [1c]
Lactonization rate constant k1 ([1]; alkyne 2b 5 mM, Exp 2): 0.191 h⁻¹
Lactonization rate constant k1 ([1]; alkyne 2b 5 mM, Expt 1): 0.225 h⁻¹
Lactonization rate constant k1 ([1]; alkyne 2b 5 mM, Expt. 3): 0.265 h⁻¹
k1 at r.t (lactonization) ([1]; alkyne 2b, n = 3): 0.22 ± 0.05 h⁻¹
Time of the Dox peak (in brackets in the Dox Peak % cell) ([2]; alkyne 2b): 18 h

C#CCOc1ccc(-c2nnc(C(=O)NCCCOCCOCCOCCCNS(=O)(=O)c3cccc4c(N(C)C)cccc34)nn2)cc1 [1d]
Lactonization rate constant k1 ([1]; alkyne 2b 5 mM, Exp 2): 0.184 h⁻¹
Lactonization rate constant k1 ([1]; alkyne 2b 5 mM, Expt 1): 0.162 h⁻¹
Lactonization rate constant k1 ([1]; alkyne 2b 5 mM, Expt. 3): 0.142 h⁻¹
k1 at r.t (lactonization) ([1]; alkyne 2b, n = 3): 0.16 ± 0.04 h⁻¹
k1 at r.t (lactonization) [1, 3]: too fast to detect
Lactonization rate constant k1 ([1]; alkyne 2d 5 mM, Exp 2): 0.0291 h⁻¹
Lactonization rate constant k1 ([1]; alkyne 2d 5 mM, Expt 1): 0.0253 h⁻¹
Lactonization rate constant k1 ([1]; alkyne 2d 5 mM, Expt. 3): 0.0332 h⁻¹
k1 at r.t (lactonization) ([1]; alkyne 2d, n = 3): 0.029 ± 0.006 h⁻¹
Time of the Dox peak (in brackets in the Dox Peak % cell) ([2]; alkyne 2b): 16 h
Time of the Dox peak (in brackets in the Dox Peak % cell) ([2]; alkyne 2c): 20 h
Time of the Dox peak (in brackets in the Dox Peak % cell) ([2]; alkyne 2d): 48 h
